Experimental data taken from patent US12398141B2 (SHANGHAI SYNERGY PHARMACEUTICAL SCIENCES CO., LTD, priority 2019, dated 2025).

Legend:
[1] = test system: Blast T cell; assay: Cell proliferation test of IL-2 stimulated Blast T cell; type: cell-based; conditions: Homo sapiens; IL-2 stimulated Blast T cell proliferation, 72 hours
Description: Inhibiting test of the compounds of the invention on proliferation of Blast T cell and TF-1 cell (American type culture collection) was carried out by the following method. The tested compounds […], and […] were dissolved in dimethyl sulfoxide from 0.0006 to 10 μM in quadruplicate dilutions. […] 10 μg/ml […] was added to stimulate and obtain cells with a density of 2×10^6/mL, which were incubated for 3 days. The cells were washed with phosphate buffer for three times and IL-2 (100 u/ml) was added to stimulate for 1 week. Cells were suspended using the culture medium and seeded at 5×10^4 cell/well density into 96-well plates, and incubated for 1 h with the prepared test compound or DMSO control at various concentrations from 0.0006 to 10 μM diluted by 4-fold volume. After incubation with 20 u/ml of IL-2 (50 μl/well without reference well) for 72 hours, Celltiter Glo® reagent (Promega, G7571) was added and mixed for 5 minutes, then incubated for 30 minutes at room temperature. The luminescence value was read on SpectraMax L (Molecular Device). […] The IC50 values of the corresponding compounds were then obtained by fitting by using the XLFit fitting tool in excel.

[2] = test system: TF-1 cell; assay: TF-1 cell proliferation test; type: cell-based; conditions: Homo sapiens, 72 h
Description: Inhibiting test of the compounds of the invention on proliferation of Blast T cell and TF-1 cell (American type culture collection) was carried out by the following method. The tested compounds […], and […] were dissolved in dimethyl sulfoxide from 0.0006 to 10 μM in quadruplicate dilutions. […] The luminescence value was read on Microplate Reader (Molecular Device). […] The IC50 values of the corresponding compounds were then obtained by fitting by using the XLFit fitting tool in excel.

[3] = test system: male ICR mice; assay: Carrageenan-induced paw swelling in mice; type: in vivo; conditions: 10 mg/kg intragastric; for Paw swelling_0.5 h (%): 0.5 h; for Paw swelling rate_1 h (%): 1 h; for Paw swelling rate_2 h (%): 2 h
Description: The inhibiting effects of compounds H01, H07, H11, H12, H14, H15, H22, H25, H29, H30, H33, H39 and H44 on paw swelling in mice were determined after intragastric administration by using male ICR mice (ShanghaiSippr-BK laboratory animal Co. Ltd.), aged 8 weeks and weighing 22-24 g as test animals. The anti-inflammatory pharmacodynamics characteristic of the compounds of the invention was discussed.
A certain amount of compounds were taken and dissolved in 4% Tween 80/0.5% hydroxy propyl methyl cellulose solution. A volume of intragastric administration in mice was 10 ml/kg.
Mice were given 10 mg/kg compounds H01, H07, H11, H12, H14, H15, H22, H25, H29, H30, H33, H39, and H44 and the positive drug indomethacin (Diamond Reagent Co., Ltd., China) by intragastric administration at the dosages shown in the table below and 20 μL 1% (W/V) carrageenan was injected subcutaneously into the plantar 0.5 h later. A paw volume was measured with a paw swelling meter before and at different time points after modeling (0.5 h, 1 h and 2 h). According to the formula: paw swelling rate=(paw volume after administration−basic paw volume)/basic paw volume×100, the inhibiting effect of the compounds on paw volume was calculated. The basic paw volume was a paw volume before administration.

[4] = Pharmacokinetic test after intragastric administration; type: in vivo; conditions: Sprague-Dawley, mouse, plasma, po, SD mice, 5 mg/kg intragastric; for AUC(0-t): read-out: Area under the curve (AUC0-24, ng/ml · h); for Cmax: read-out: Plasma concentration (Cmax, ng/ml); for half-life: read-out: half life (T1/2, h) (converted)
Description: Drug concentrations of compounds H01, H07, H11, H12, H14, H15, H22, H25, H29, H30, H33, H39 and H44 intragastrically administrated in plasma by using LC/MS/MS method at various time points were determined by using Sprague-Dawley (SD) […], aged 7-8 weeks and weighing […] as test animals. Pharmacokinetic behavior of the compounds of the invention in […] was studied and its pharmacokinetic characteristics were evaluated.
A certain amount of compounds was taken and dissolved in 50% PEG400/water to prepare a uniform solution.
Mice were administered intragastrically with the above compounds with a dosage of 5 mg/kg. Blood (0.2 ml) was taken from orbits before administration and 0.083 h, 0.25 h, 0.5 h, 1.0 h, 2.0 h, 4.0 h, 6.0 h, 8.0 h, 12.0 h and 24.0 h after administration. The blood was placed in anticoagulant tubes containing dipotassium ethylene glycol diethyl ether diamine tetraacetic acid, centrifugated at 6000 rpm at 4° C. for 10 minutes to separate plasma and saved at −80° C.
50 μL plasma at various time was taken and 150 μL acetonitrile solution containing internal standard tolbutamide (Sigma, USA) was added, mixed and stirred for 5 minutes. After centrifugation for 5 minutes at 12,000 rpm, 100 μL supernatant was taken, mixed with 200 μL water, following by sample injection and analysis.
Liquid chromatogram system was LC-20AD UFLC High Performance Liquid Chromatography system. Mass spectrum system was AB Sciex API4000 triple quadrupole mass spectrometer equipped with Electron Spray Ionization (ESI) (Applied Biosystems, Canada). A software for controlling liquid chromatography-mass spectrometry and quantitative analysis was Anna Rust 1.6 (Applied Biosystems, Canada). Pharmacokinetic parameters were analyzed by WinNonlin (version 5.2, Pharsight, Mountain View, […]) non-compartment model.
The test compound was dissolved in dimethyl sulfoxide to prepare a stock solution with a concentration of 1 mg/mL. The solution was diluted with 50% acetonitrile to obtain a series of standard working solutions with concentrations of 10 μg/mL, 3 μg/mL, 1 μg/mL, 0.3 μg/mL, 0.1 μg/mL, 0.03 μg/mL and 0.01 μg/mL, and a series of standard quality control solutions with concentrations of 8 μg/mL, 0.5 μg/mL, 0.03 μg/mL. 5 μL standard solution was mixed with 45 μL blank plasma substrate uniformly to obtain standard solutions of each concentration of a standard curve (1000 ng/mL, 500 ng/mL, 200 ng/mL, 100 ng/mL, 10 ng/mL, 5 ng/mL, 2 and 1 ng/mL) and quality control solutions (plasma samples: 800 ng/mL, 50 and 3 ng/mL).
Internal standard tolbutamide solid powder was dissolved in dimethyl sulfoxide to prepare a 1 mg/mL stock solution. The stock solution was diluted with 100% acetonitrile to obtain 200 ng/mL solution as a protein precipitation solution.

Row | AUC(0-t) [4] [ng·h/mL] | Cmax [4] [ng/mL] | half-life [4] [h] | Compound | IC50 [1] [µM] | IC50 [2] [µM] | Paw swelling_0.5 h (%) [3] [%] | Paw swelling rate_1 h (%) [3] [%] | Paw swelling rate_2 h (%) [3] [%]
1 | 1270 ± 231 | 501 ± 17 | 4.67 ± 0.23 | CN(c1c(C#N)cnc2[nH]ccc12)[C@H]1C[C@@H]2CN(C(=O)Nc3ccc(Cl)c(C(F)(F)F)c3)C[C@@H]2C1 [Compound H25, (3aR,5s,6aS)-N-(4-chloro-3-(trifluoromethyl)phenyl)-5-((5-cyano-1H-pyrrolo[2,3-b]pyridin-4-yl)(methyl)amino)hexahydrocyclopentadiene[c]pyrrole-2(1H)-carboxamide] | 0.02 | 0.73 | 37.45 ± 4.37 | 44.64 ± 3.68 | 44.66 ± 5.58
2 | 923 ± 263 | 433 ± 16 | 2.47 ± 0.46 | CC(C)c1nsc(NC(=O)N2C[C@H]3C[C@H](N(C)c4c(C#N)cnc5[nH]ccc45)C[C@H]3C2)n1 [Compound H30, (3aR,5s,6aS)-4-({2-[(3-isopropyl-1,2,4-thiadiazole-5-yl)carbamoyl]-hexahydrocyclopenta[c]pyrrole-5-yl}-methyl-amino)-1H-pyrrolo[2,3-b]pyridin-5-carbonitrile] | 0.018 | 1.23 | 33.12 ± 1.38 | 43.43 ± 2.12 | 44.52 ± 4.37
3 | 1560 ± 230 | 574 ± 64 | 4.65 ± 0.15 | N#Cc1cnc2[nH]ccc2c1N1CC2CN(C(=O)NCC(F)(F)F)CC21 (stereo not drawn) [Compound H39, 6-(5-cyano-1H-pyrrolo[2,3-b]pyridin-4-yl)-N-(2,2,2-trifluoroethyl)-3,6-diazabicyclo[3.2.0]heptane-3-carboxamide] | 0.015 | 0.69 | 30.45 ± 1.74 | 26.44 ± 3.68 | 38.99 ± 5.58
4 | 1920 ± 20 | 578 ± 43 | 4.62 ± 0.87 | COc1nsc(NC(=O)N2C[C@H]3C[C@H](N(C)c4c(C#N)cnc5[nH]ccc45)C[C@H]3C2)n1 [Compound H07, (3aR,5s,6aS)-4-({2-[(3-methoxy-1,2,4-thiadiazole-5-yl)carbamoyl]-hexahydrocyclopenta[c]pyrrole-5-yl}-methyl-amino)-1H-pyrrolo[2,3-b]pyridin-5-carbonitrile] | 0.024 | 0.073 | 37.02 ± 1.35 | 42.33 ± 2.20 | 41.24 ± 3.36
5 | 915 ± 240 | 438 ± 24 | 2.11 ± 0.16 | CCCS(=O)(=O)N[C@H]1C[C@@H](N(C)c2c(C#N)cnc3[nH]ccc23)C1 [Compound H14, (cis)-4-{[3-(propanesulfonamido)-cyclobutyl-1-yl]-methyl-amino}-1H-pyrrolo[2,3-b]pyridin-5-carbonitrile] | 0.017 | 0.63 | 39.03 ± 4.53 | 40.65 ± 2.51 | 39.00 ± 4.25
6 | 757 ± 169 | 213 ± 22 | 3.11 ± 0.64 | CN(c1c(C#N)cnc2[nH]ccc12)[C@H]1C[C@@H]2CN(C(=O)NCC(F)(F)F)C[C@@H]2C1 [Compound H22, (3aR,5s,6aS)-4-({2-[(2,2,2-trifluoroethyl)-carbamoyl]-hexahydrocyclopenta[c]pyrrole-5-yl}-methyl-amino)-1H-pyrrolo[2,3-b]pyridin-5-carbonitrile] | 0.019 | 1.76 | 31.22 ± 2.62 | 41.76 ± 1.20 | 42.25 ± 5.67
7 | 2620 ± 10 | 428 ± 32 | 8.53 ± 0.67 | C[C@@H]1CCN(C(=O)CC#N)C[C@@H]1N(C)c1c(C#N)cnc2[nH]ccc12 [Compound H11, 4-{[(3R,4R)-1-(2-cyanoacetyl)-4-methylpiperidin-3-yl]-methyl-amino}-1H-pyrrolo[2,3-b]pyridin-5-carbonitrile] | 0.013 | 0.68 | 30.22 ± 2.62 | 39.76 ± 1.20 | 40.25 ± 5.47
8 | 1820 ± 173 | 440 ± 89 | 8.64 ± 0.23 | CN(C)c1nsc(NC(=O)N2C[C@H]3C[C@H](N(C)c4c(C#N)cnc5[nH]ccc45)C[C@H]3C2)n1 [Compound H33, (3aR,5s,6aS)-4-({2-[(3-dimethylamino-1,2,4-thiadiazole-5-yl)carbamoyl]-hexahydrocyclopenta[c]pyrrole-5-yl}-methyl-amino)-1H-pyrrolo[2,3-b]pyridin-5-carbonitrile] | 0.023 | 1.1 | 30.78 ± 2.62 | 31.76 ± 1.86 | 41.75 ± 5.67
9 | 1020 ± 266 | 644 ± 82 | 4.23 ± 0.47 | N#Cc1cnc2[nH]ccc2c1N[C@H]1C[C@@H](NS(=O)(=O)CCC(F)(F)F)C1 [Compound H12, (cis)-4-{[3-(3,3,3-trifluoropropanesulfonamido)-cyclobutyl-1-yl]-amino}-1H-pyrrolo[2,3-b]pyridin-5-carbonitrile] | 0.011 | 1.67 | 38.45 ± 4.37 | 45.64 ± 3.58 | 41.66 ± 5.38
